Assay results taken from ChEMBL document CHEMBL1201862, “PubChem BioAssay data set” (2004).
Calls of active or inactive are those of the source.

Assays:
cells = conditions: HEK293
[1] = molecular target: Alkaline phosphatase, placental type (Homo sapiens, UniProt P05187); assay: PLAP enzyme inhibitors, confirmation, biochemical, luminescence (AID 1512); format: functional
[2] = human group III sPLA2 inhibitors, dose response, biochemical, QFRET, IC50 (AID 743457);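 further: green fluorescence rise as the enzyme cleaves BODIPY PC-A2 in liposomes; potency for inhibition of the enzyme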
[3] = Counterscreen for […] of the human trace amine associated receptor 1 (TAAR1): Fluorescence-based cell-based high throughput dose response assay to identify nonselective Ga16 agonists.; format: functional
[4] = molecular target: T1, Trace amine-associated receptor 1 (Homo sapiens, UniProt Q96RJ0); assay: Fluorescence-based cell-based high throughput dose response assay to identify antagonists of the human trace amine associated receptor 1 (TAAR1).; format: functional
T1 sequence (Q96RJ0 whole entry): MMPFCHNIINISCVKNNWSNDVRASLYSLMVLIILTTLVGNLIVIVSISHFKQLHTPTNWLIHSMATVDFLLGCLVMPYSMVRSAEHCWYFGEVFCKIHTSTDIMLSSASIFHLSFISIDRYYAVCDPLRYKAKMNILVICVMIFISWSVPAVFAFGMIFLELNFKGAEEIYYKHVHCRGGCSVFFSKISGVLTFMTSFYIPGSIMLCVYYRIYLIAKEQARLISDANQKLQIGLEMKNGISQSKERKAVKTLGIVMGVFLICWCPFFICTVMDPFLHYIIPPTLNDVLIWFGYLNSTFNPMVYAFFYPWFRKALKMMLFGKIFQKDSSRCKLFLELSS

[5] = Counterscreen for antagonists of the human trace amine associated receptor 1 (hTAAR1): Fluorescence-based cell-based high throughput dose response assay to identify nonselective Ga16 antagonists.; format: functional
[6] = molecular target: T1, Trace amine-associated receptor 1; assay: Counterscreen for antagonists of the human trace amine associated receptor 1 (hTAAR1): Fluorescence-based cell-based high throughput dose response assay to identify TAAR1 Agonists.; format: functional
[7] = molecular target: Matrix metalloproteinase-14 (Homo sapiens, UniProt P50281); assay: Dose Response confirmation of uHTS hits for a small molecule inhibitors of MT1-MMP activation in a fluorescence assay set 1.; format: functional
[8] = molecular target: DNA dC->dU-editing enzyme APOBEC-3A (Homo sapiens, UniProt P31941); assay: APOBEC3A DNA deaminase inhibitors, dose response, biochemical (AID 504722); format: functional
[9] = molecular target: DNA dC->dU-editing enzyme APOBEC-3G (Homo sapiens, UniProt Q9HC16); assay: Dose Response confirmation of small molecule APOBEC3G DNA Deaminase Inhibitors via a fluorescence-based single-stranded DNA deaminase assay. [Related pubchem assays (depositor defined):AID493012, AID493028]; format: functional
[10] = molecular target: Endoplasmic reticulum aminopeptidase 1 (Homo sapiens, UniProt Q9NZ08); assay: ERAP1 aminopeptidase inhibitors, dose response, biochemical, cherry-pick, set 2, plate reader (AID 743314)
[11] = molecular target: T2, Microphthalmia-associated transcription factor (Homo sapiens, UniProt O75030); assay: TRPM1 promoter luciferase signal decrease, dose response, MITF inhibitor project, cell-based, SK-MEL-5, cherry-picked, set 3 (AID 493073); format: functional
T2 sequence (O75030 whole entry): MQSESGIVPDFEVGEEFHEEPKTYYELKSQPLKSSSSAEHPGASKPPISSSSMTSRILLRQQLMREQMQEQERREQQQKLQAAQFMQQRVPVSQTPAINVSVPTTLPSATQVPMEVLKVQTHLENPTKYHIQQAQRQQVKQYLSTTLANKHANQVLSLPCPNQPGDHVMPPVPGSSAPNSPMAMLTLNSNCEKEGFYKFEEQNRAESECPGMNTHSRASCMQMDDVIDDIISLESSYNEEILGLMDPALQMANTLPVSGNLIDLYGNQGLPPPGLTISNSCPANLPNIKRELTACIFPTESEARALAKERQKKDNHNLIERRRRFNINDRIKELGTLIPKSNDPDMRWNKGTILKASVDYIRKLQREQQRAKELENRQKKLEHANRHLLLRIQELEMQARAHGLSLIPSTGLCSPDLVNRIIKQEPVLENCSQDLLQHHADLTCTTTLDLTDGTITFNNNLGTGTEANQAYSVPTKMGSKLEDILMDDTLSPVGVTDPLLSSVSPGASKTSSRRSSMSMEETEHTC

[12] = molecular target: Apoptotic protease-activating factor 1 (Homo sapiens, UniProt O14727); format: functional
[13] = HepG2 cell cytotoxicity, dose response, cytotoxicity control, ATP luminescence, cherry-pick, activator set 2 (AID 1053143); format: functional, cell-based
Paired box protein Pax-8 = Paired box protein Pax-8 (Homo sapiens, UniProt Q06710); assay: inhibitors of PAX8-driven TPO luciferase reporter, dose response, RMG-I cells, cherry-pick (AID 687027); format: functional, cell-based;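 further: luciferase reporter driven by Pax8 target thyroperoxidase promoter measured by SteadyGlo luminescence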
[14] = IOSE-T80 ovarian epithelial cell cytotoxicity, dose response, cytotoxicity control for PAX8 inhibitor project, plate reader, dry powder samples (AID 743045); format: functional, cell-based
[15] = NIH:OVCAR-3 ovarian cancer cell cytotoxicity, dose response, PAX8 inhibitor project, plate reader, dry powder samples (AID 743044); format: functional, cell-based
Beta-galactosidase = Beta-galactosidase (Escherichia coli, UniProt Q8VNN2); assay: Dose response counterscreen for EBI2 assay utilizing the enzyme, b-galactosidase.; format: functional
[16] = molecular target: T3, Polyadenylate-binding protein 1 (Homo sapiens, UniProt P11940); assay: PABP1 MLLE–PAM2 interaction inhibitors, dose response, miRNA deadenylation inhibitor project, biochemical, fluorescence polarization, Cy5-PAM2 peptide, secondary (AID 602260); format: functional; conditions: read-out: IC50_Mean
[17] = molecular target: T3, Polyadenylate-binding protein 1; assay: PABP1 MLLE–PAM2 binding inhibitor potency, dose response, biochemical, fluorescence polarization, FITC-PAM2 peptide (AID 602259); format: functional; conditions: read-out: IC50_Mean
[18] = molecular target: T4, Sentrin-specific protease 8 (Homo sapiens, UniProt Q96LD8); format: functional
T4 sequence (Q96LD8 whole entry): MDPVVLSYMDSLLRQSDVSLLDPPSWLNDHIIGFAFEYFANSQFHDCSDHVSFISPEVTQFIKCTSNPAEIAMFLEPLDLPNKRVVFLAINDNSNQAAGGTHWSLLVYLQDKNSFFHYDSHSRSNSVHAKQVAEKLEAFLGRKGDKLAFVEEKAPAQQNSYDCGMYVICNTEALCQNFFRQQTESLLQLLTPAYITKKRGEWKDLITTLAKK

[19] = molecular target: T4, Sentrin-specific protease 8; format: functional; remark: listed apart in the source
Caspase-3 = molecular target: T5, Caspase-3 (Homo sapiens, UniProt P42574); assay: Dose-response confirmation of uHTS inhibitor hits of Sentrin-Specific Protease 8 in a Caspase-3 Fluorescence assay.; format: functional
T5 sequence (P42574 whole entry): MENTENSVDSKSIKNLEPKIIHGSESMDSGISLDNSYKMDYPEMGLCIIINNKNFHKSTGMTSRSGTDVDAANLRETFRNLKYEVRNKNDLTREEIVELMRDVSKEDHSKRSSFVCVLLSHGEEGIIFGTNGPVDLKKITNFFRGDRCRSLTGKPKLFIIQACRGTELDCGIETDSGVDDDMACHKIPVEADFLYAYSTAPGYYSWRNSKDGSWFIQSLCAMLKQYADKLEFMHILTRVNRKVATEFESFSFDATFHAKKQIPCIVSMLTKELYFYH

[20] = molecular target: Tyrosyl-DNA phosphodiesterase 2 (Homo sapiens, UniProt O95551); assay: human TDP2 enzyme inhibitors, dose response, biochemical, epi absorbance, IC50 (AID 743297)
[21] = molecular target: Induced myeloid leukemia cell differentiation protein Mcl-1 (Homo sapiens, UniProt Q07820); format: functional
[22] = HEK293T cytotoxicity, dose response, cytotoxicity control for miR-122 modulator project, cell-based, inhibitor set, cherry-pick, set 2 (AID 720697); format: functional

T3 sequence (P11940 whole entry): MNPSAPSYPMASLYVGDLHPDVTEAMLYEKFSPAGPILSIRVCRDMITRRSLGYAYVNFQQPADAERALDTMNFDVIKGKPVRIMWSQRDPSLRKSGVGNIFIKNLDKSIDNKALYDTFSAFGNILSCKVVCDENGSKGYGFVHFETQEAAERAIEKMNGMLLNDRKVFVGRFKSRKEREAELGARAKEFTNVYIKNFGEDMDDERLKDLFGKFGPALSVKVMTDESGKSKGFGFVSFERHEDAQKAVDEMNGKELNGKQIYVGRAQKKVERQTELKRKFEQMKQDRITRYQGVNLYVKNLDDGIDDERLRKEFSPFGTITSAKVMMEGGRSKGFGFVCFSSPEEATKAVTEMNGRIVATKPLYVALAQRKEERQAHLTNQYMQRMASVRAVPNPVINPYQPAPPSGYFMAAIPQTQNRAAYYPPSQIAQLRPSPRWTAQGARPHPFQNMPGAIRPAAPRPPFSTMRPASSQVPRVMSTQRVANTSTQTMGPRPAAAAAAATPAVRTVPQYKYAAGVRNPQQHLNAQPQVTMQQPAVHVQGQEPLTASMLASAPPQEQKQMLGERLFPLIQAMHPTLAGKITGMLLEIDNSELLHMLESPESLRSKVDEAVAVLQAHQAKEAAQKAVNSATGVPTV
DNA dC->dU-editing enzyme APOBEC-3A, sequence (P31941 whole entry): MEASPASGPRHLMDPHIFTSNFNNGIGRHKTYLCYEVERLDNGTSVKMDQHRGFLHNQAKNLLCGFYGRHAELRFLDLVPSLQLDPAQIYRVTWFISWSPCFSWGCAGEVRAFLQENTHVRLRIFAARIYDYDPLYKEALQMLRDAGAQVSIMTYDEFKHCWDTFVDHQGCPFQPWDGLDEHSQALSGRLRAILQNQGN
Beta-galactosidase, sequence (Q8VNN2 whole entry): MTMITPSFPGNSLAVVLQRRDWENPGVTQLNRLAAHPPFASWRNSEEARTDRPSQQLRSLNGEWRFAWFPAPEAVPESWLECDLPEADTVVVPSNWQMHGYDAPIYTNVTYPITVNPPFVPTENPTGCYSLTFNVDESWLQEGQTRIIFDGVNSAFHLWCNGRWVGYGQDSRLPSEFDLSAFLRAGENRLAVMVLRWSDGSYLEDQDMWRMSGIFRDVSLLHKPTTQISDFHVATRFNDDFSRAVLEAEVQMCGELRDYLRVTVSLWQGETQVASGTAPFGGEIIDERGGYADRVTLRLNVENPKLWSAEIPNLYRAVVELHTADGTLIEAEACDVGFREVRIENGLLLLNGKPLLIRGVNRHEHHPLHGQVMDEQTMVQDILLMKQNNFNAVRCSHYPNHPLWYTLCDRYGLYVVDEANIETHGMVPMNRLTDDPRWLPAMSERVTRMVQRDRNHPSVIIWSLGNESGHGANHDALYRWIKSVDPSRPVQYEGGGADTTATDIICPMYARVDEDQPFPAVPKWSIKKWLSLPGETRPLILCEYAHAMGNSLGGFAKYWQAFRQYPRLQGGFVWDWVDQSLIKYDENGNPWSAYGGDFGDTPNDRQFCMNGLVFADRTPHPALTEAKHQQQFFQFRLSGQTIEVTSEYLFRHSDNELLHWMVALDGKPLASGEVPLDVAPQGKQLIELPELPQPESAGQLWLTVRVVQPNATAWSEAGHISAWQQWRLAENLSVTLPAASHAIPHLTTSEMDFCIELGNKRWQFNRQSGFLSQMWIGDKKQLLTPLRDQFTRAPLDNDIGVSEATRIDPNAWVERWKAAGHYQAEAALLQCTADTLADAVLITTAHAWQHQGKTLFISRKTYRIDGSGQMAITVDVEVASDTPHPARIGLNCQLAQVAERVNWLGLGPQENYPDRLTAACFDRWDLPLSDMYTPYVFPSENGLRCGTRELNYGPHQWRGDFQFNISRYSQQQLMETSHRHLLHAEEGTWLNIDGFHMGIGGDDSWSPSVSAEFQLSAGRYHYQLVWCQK
Paired box protein Pax-8, sequence (Q06710 whole entry): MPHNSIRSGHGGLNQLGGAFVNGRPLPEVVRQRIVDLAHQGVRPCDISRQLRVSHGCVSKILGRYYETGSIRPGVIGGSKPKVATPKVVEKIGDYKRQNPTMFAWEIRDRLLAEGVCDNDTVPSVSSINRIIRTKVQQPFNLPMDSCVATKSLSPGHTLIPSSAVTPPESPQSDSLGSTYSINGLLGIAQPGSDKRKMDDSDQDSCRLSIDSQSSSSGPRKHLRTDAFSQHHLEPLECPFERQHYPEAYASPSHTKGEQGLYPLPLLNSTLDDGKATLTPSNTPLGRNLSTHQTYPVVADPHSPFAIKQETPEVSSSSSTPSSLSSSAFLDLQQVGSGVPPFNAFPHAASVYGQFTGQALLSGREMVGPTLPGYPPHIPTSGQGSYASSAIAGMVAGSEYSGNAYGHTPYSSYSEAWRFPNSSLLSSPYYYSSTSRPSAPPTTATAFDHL
Tyrosyl-DNA phosphodiesterase 2, sequence (O95551 whole entry): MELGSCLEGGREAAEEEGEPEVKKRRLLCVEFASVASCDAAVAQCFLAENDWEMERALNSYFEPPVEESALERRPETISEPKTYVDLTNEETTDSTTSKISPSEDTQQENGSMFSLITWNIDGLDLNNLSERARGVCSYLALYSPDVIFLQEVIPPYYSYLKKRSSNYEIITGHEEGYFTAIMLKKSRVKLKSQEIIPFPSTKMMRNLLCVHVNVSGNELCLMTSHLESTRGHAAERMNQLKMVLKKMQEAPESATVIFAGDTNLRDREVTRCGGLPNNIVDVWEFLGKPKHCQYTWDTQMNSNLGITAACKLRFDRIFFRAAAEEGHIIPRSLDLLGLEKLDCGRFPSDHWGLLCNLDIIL
Induced myeloid leukemia cell differentiation protein Mcl-1, sequence (Q07820 whole entry): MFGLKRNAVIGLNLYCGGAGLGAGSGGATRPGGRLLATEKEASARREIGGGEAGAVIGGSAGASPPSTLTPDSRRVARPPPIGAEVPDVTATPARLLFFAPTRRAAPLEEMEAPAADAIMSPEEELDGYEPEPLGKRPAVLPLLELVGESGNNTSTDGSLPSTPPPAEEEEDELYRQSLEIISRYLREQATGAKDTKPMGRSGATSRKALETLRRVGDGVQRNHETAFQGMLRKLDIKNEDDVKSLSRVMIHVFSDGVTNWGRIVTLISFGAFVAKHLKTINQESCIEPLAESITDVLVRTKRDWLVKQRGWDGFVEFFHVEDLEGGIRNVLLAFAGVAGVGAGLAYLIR
Endoplasmic reticulum aminopeptidase 1, sequence (Q9NZ08 whole entry): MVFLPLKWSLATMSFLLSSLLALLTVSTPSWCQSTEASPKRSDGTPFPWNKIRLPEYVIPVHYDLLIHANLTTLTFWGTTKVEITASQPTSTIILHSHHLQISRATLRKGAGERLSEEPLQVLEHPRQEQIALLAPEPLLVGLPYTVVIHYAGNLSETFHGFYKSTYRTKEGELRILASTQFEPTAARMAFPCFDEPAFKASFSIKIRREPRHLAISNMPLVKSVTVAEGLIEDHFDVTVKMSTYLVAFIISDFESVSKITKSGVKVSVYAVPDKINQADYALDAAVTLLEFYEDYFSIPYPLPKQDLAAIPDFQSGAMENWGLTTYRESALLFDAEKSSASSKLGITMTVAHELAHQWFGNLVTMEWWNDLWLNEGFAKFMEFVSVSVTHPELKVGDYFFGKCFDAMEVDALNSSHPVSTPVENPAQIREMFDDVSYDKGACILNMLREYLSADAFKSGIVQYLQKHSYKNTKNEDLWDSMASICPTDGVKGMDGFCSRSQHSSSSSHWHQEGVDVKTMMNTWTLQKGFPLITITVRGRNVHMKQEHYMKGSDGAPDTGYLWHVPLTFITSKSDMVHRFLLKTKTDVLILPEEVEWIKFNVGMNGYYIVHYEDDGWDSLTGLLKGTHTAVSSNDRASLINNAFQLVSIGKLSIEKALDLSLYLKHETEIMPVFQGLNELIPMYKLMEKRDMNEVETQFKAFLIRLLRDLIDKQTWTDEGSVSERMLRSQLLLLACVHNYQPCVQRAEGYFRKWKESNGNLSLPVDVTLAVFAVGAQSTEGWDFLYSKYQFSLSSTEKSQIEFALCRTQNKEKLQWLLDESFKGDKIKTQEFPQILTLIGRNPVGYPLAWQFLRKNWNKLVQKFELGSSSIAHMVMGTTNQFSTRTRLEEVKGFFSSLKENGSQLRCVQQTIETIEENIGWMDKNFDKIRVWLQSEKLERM
Alkaline phosphatase, placental type, sequence (P05187 whole entry): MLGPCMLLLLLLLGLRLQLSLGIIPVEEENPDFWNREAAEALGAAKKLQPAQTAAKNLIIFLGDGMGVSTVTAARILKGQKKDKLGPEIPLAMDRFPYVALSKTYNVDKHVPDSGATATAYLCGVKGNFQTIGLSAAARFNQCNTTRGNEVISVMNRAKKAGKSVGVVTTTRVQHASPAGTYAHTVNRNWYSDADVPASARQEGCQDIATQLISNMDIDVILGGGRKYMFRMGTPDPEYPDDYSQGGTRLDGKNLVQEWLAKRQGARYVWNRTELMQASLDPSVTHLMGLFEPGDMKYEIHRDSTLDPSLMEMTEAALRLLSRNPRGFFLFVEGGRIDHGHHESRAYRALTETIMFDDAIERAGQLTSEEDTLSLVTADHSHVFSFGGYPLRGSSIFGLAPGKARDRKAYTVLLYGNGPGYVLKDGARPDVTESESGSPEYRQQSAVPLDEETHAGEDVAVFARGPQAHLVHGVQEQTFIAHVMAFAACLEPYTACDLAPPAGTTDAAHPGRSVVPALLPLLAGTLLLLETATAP
DNA dC->dU-editing enzyme APOBEC-3G, sequence (Q9HC16 whole entry): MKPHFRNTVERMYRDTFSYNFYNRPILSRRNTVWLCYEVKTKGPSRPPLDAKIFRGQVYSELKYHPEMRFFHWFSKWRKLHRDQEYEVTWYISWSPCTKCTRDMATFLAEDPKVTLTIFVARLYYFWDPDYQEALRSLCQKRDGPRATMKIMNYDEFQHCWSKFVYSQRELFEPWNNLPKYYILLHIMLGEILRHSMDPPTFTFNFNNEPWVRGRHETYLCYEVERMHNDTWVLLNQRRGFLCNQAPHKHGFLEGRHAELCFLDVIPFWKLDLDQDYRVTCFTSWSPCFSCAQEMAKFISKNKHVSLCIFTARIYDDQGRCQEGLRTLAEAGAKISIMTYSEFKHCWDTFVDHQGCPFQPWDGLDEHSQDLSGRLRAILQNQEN

CC1CCN(C(=O)COc2cccc3c2CCN(Cc2ccccc2)C3=O)CC1
AC50 (cells): 28.7 µM (active)

COc1ccccc1N=C(S)NNC(=O)c1nn(C)c(C)c1Br
IC50 [1]: > 100 µM (inactive)
IC50 [2]: > 122 µM (inactive)

CCOC(=O)C1CCCN(c2c(C(=O)c3ccccc3)cnc3ccc(OC)cc23)C1 (stereo unspecified)
EC50 [3]: > 29.9 µM (inactive)
IC50 [4]: 4.06 µM (active)
IC50 [5]: > 29.9 µM (inactive)
EC50 [6]: 11.6 µM (inactive)

CNc1c(C(=O)O)ccc2c1C(=O)c1ccccc1C2=O
IC50 [7]: 18.5 µM (active)

O=C(CSc1cnn[nH]1)Nc1cccc(C(=O)O)c1
IC50 [8]: > 100 µM (inactive)
IC50 [9]: 15.3 µM (active)
AC50 [10]: 8 µM (active)

CCc1ccc(NC2=CC(=O)C(=O)c3ccccc32)cc1
AC50 [11]: 3.59 µM (active)
IC50 [12]: 3.54 µM (active)
AC50 [13]: 6.77 µM (active)

C[C@@H]1CCCCO[C@H](CN(C)Cc2ccccc2)[C@H](C)CN([C@@H](C)CO)C(=O)c2cc(NC(=O)Nc3ccc(C(F)(F)F)cc3)ccc2O1
AC50 (Paired box protein Pax-8): 9.11 µM (active)
AC50 [14]: 45.7 µM (active)
AC50 [15]: 42.1 µM (active)

S=C(NCC1CCCO1)N1CCN(c2nc(-c3ccc(Cl)cc3)cs2)CC1 (stereo unspecified)
IC50 (Beta-galactosidase): > 80 µM (inactive)

COc1ccc2c(c1)Cc1sc(NC(C)=O)nc1-2
IC50 [16]: > 66 µM (inactive)
IC50 [17]: > 66 µM (inactive)
IC50 [18]: 9.19 µM (active)
IC50 [19]: 6.35 µM (active)
IC50 (Caspase-3): 23.9 µM (active)
IC50 [20]: 67.5 µM (inactive)

CN1CCN(c2ccc(Cl)cc2NC(=O)c2ccc(S(=O)(=O)N3CCCCCC3)cc2)CC1
IC50 [21]: 3.55 µM (active)
AC50 [22]: 5.58 µM (active)
